Assay results from ChEMBL document CHEMBL2385043, “Recent advances in malaria drug discovery” (Bioorg Med Chem Lett, 2013).

Experiments:
Plasmodium berghei [1] = assay: Antimalarial activity against Plasmodium berghei str. ANKA infected in po dosed mouse assessed as reduction in parasitemia; type: functional
Plasmodium falciparum [2] = assay: Antiplasmodial activity against erythrocytic stage of multidrug-resistant Plasmodium falciparum W2; type: functional, organism-based
[3] = Half life in human; type: ADME, organism-based; settings: in vivo
Plasmodium = assay: Antimalarial activity against Plasmodium infected in mouse; type: functional
Plasmodium falciparum [4] = assay: Antiplasmodial activity against Plasmodium falciparum; type: functional, organism-based
[5] = Toxicity in po dosed Sprague-Dawley rat; type: organism-based; settings: in vivo
Plasmodium berghei [6] = assay: Antimalarial activity against Plasmodium berghei infected in Swiss albino mouse assessed as reduction in parasitemia after 4 days by microscopic analysis relative to artesunate; type: functional
Plasmodium berghei [7] = assay: Antimalarial activity against Plasmodium berghei infected in Swiss albino mouse assessed as reduction in parasitemia after 4 days by microscopic analysis; type: functional; settings: 96 h
Plasmodium falciparum [8] = assay: Antiplasmodial activity against drug-sensitive Plasmodium falciparum 3D7 after 24 hrs by [3H]-hypoxanthine incorporation assay; type: functional, organism-based
Plasmodium falciparum [9] = assay: Antiplasmodial activity against Plasmodium falciparum relative to artesunate; type: functional
Plasmodium falciparum [10] = assay: Antiplasmodial activity against drug-sensitive Plasmodium falciparum 3D7; type: functional, organism-based
Plasmodium falciparum [11] = assay: Antiplasmodial activity against chloroquine-resistant Plasmodium falciparum K1 infected in human erythrocytes after 48 hrs by [3H]-hypoxanthine incorporation assay; type: functional, organism-based
Plasmodium falciparum [12] = assay: Antimalarial activity against Plasmodium falciparum infected in po dosed mouse assessed as decrease in parasitemia administered on day 1 postinfection measured on day 3 by FACS analysis; type: functional
Plasmodium falciparum [13] = assay: Antiplasmodial activity against Plasmodium falciparum VS/1 expressing DHFR quadruple mutation by [3H]-hypoxanthine incorporation assay; type: functional, organism-based
Plasmodium falciparum [14] = assay: Antiplasmodial activity against wild type Plasmodium falciparum TM4 by [3H]-hypoxanthine incorporation assay; settings: TM4, 3 h
Plasmodium falciparum [15] = assay: Antiplasmodial activity against chloroquine-resistant Plasmodium falciparum K1; type: functional, organism-based
Plasmodium falciparum [16] = assay: Antiplasmodial activity against chloroquine and antifolate-sensitive Plasmodium falciparum TM4 after 24 hrs by [3H]-hypoxanthine incorporation assay; type: functional, organism-based
Plasmodium berghei [17] = assay: Antimalarial activity against Plasmodium berghei infected in po dosed mouse; type: functional
[18] = Half life in po dosed rat; settings: in vivo
[19] = Oral bioavailability in rat; type: ADME, organism-based; settings: in vivo
Lysine--tRNA ligase = Lysine--tRNA ligase (Homo sapiens, UniProt Q15046); assay: Inhibition of human recombinant cytoplasmic lysyl-tRNA synthetase
Lysine--tRNA ligase, sequence (Q15046 whole entry): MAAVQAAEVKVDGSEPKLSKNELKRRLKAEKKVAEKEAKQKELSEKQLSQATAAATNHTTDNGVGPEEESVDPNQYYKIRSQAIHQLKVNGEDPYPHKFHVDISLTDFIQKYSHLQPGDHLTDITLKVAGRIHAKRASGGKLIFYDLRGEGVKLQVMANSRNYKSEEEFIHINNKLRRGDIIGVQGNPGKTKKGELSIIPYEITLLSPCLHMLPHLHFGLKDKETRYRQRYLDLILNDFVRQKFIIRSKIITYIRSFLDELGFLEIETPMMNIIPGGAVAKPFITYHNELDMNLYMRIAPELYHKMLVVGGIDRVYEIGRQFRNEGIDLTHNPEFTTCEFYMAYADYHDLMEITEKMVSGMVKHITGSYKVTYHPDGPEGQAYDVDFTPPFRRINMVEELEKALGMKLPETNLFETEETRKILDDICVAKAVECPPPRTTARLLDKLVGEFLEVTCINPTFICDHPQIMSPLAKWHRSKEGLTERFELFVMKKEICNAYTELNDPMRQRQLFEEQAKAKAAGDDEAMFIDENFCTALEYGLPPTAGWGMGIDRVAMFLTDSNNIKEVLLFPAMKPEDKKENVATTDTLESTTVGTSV

Plasmodium falciparum [20] = assay: Antiplasmodial activity against liver stage of drug-sensitive Plasmodium falciparum 3D7; type: functional, organism-based; settings: 3D7, Liver
Plasmodium falciparum [21] = assay: Antiplasmodial activity against liver stage of drug-sensitive Plasmodium falciparum D10; type: functional, organism-based
Plasmodium berghei [22] = assay: Antimalarial activity against Plasmodium berghei ANKA infected in mouse assessed as reduction in parasitemia at 40 mg/kg, ip relative to control; type: functional; settings: route intraperitoneal
[23] = Half life in Sprague-Dawley rat at 3 mg/kg, iv; type: ADME, organism-based; set-up: dose 3 mg/kg, route intravenous; settings: in vivo
Plasmodium falciparum [24] = assay: Antimalarial activity against Plasmodium falciparum infected in SCID mouse; type: functional
Plasmodium falciparum [25] = assay: Antiplasmodial activity against multidrug-resistant Plasmodium falciparum W2 infected in human erythrocytes after 24 hrs by [3H]-hypoxanthine incorporation assay
Plasmodium yoelii = assay: Antiplasmodial activity against liver stage of Plasmodium yoelii; type: functional, organism-based
Plasmodium falciparum [26] = assay: Antiplasmodial activity against blood stage of Plasmodium falciparum; type: functional, organism-based

Q: Which results are given for `O[C@@H](c1cc(C(F)(F)F)nc2c(C(F)(F)F)cccc12)[C@H]1CCCCN1` (relative stereo) [(S,R)-MEFLOQUINE]?
A: ED50 (Plasmodium berghei [1]): 3.3 mg/kg; EC50 (Plasmodium falciparum [2]): 7 nM; half-life [3]: 336 h

Q: Which results are given for `c1cc([C@H]2CC[C@]3(CC2)OO[C@]2(O3)C3CC4CC(C3)CC2C4)ccc1OCCN1CCOCC1` [ARTEFENOMEL]?
A: ED50 (Plasmodium): 20 mg/kg; EC50 (Plasmodium falciparum [4]): 3.4 nM; MTD [5]: 300 mg/kg

Q: With `C[C@H]1[C@H](N2CCS(=O)(=O)CC2)O[C@@H]2O[C@@]3(C)CC[C@H]4[C@H](C)CC[C@@H]1[C@@]24OO3` [ARTEMIFONE] as the molecule, how does the “fold change (FC)” value (Plasmodium berghei [6]) read?
A: 4

Q: What about the ED50 (Plasmodium berghei [7]) of the same molecule?
A: 2 mg/kg/day

Q: What about the EC50 (Plasmodium falciparum [8]) of the same molecule?
A: 0.88 nM

Q: What about the “fold change (FC)” value (Plasmodium falciparum [9]) of the same molecule?
A: 10

Q: With `CC(C)(C)c1cc(C(=O)N2CCN(c3ncccc3C(F)(F)F)CC2)n(Cc2ccccc2)n1` as the molecule, how does the EC50 (Plasmodium falciparum [10]) read?
A: 100 nM

Q: With `C[C@H]1[C@@H](O)O[C@@H]2O[C@@]3(C)CC[C@H]4[C@H](C)CC[C@@H]1[C@@]24OO3` [ARTENIMOL] as the molecule, how does the half-life [3] read?
A: 1 h

Q: Which results are given for `C[C@H]1[C@H](OC(=O)CCC(=O)O)O[C@@H]2O[C@@]3(C)CC[C@H]4[C@H](C)CC[C@@H]1[C@@]24OO3` [ARTESUNATE]?
A: EC50 (Plasmodium falciparum [11]): 3.1 nM; ED50 (Plasmodium falciparum [12]): 6.2 mg/kg/day; half-life [3]: 1 h

Q: What does the source list for `CCc1nc(N)nc(N)c1-c1ccc(Cl)cc1` [PYRIMETHAMINE]?
A: IC50 (Plasmodium falciparum [13]): > 100000 nM; IC50 (Plasmodium falciparum [14]): 58 nM

Q: With `CN1CCN(C2CCN(C(=O)CC3CCC4(CC3)OOC3(OO4)C4CC5CC(C4)CC3C5)CC2)CC1` (stereo unspecified) as the molecule, how does the ED50 (Plasmodium) read?
A: 1.8 mg/kg/day

Q: What about the IC50 (Plasmodium falciparum [15]) of the same molecule?
A: 1.9 nM

Q: And the IC50 (Plasmodium falciparum [10])?
A: 4.9 nM

Q: Which EC50 (Plasmodium falciparum [16]) does the source give for `CC1(C)N=C(N)N=C(N)N1c1ccc(Cl)cc1` [CYCLOGUANIL] here?
A: 38 nM

Q: Which ED50 (Plasmodium berghei [17]) does the source give for `C[C@H]1Cc2c([nH]c3cc(Cl)c(F)cc23)[C@@]2(N1)C(=O)Nc1ccc(Cl)cc12` [CIPARGAMIN] here?
A: 1.2 mg/kg

Q: What about the half-life [18] of the same molecule?
A: 27 h

Q: And the bioavailability [19]?
A: 100%

Q: And the EC50 (Plasmodium falciparum [10])?
A: 0.7 nM

Q: For `C[C@H]1CCC[C@H](C[C@H]2Cc3cc(O)cc(O)c3C(=O)O2)O1` [CLADOSPORIN], which IC50 (Lysine--tRNA ligase) is on record?
A: > 20000 nM

Q: And the EC50 (Plasmodium falciparum [20])?
A: 45 nM

Q: And the EC50 (Plasmodium falciparum [21])?
A: 90 nM

Q: For `COc1cc2nc(N3CCCN(C)CC3)nc(NC3CCN(Cc4ccccc4)CC3)c2cc1OC`, which EC50 (Plasmodium falciparum [10]) is on record?
A: 75 nM

Q: What about the “fold change (FC)” value (Plasmodium berghei [22]) of the same molecule?
A: 2

Q: For `CC(C)(N)CNC(=O)C[C@H]1CC[C@]2(CC1)OO[C@]1(O2)C2CC3CC(C2)CC1C3` [OZ277], which half-life [23] is on record?
A: 1 h

Q: With `CCN(CC)CCCC(C)Nc1ccnc2cc(Cl)ccc12` (stereo unspecified) [CHLOROQUINE] as the molecule, how does the ED50 (Plasmodium berghei [17]) read?
A: 1.9 mg/kg

Q: And the ED90 (Plasmodium falciparum [24])?
A: 6.4 mg/kg/day

Q: What about the EC50 (Plasmodium falciparum [25]) of the same molecule?
A: 49 nM

Q: With `C[C@H](NC(=O)[C@H](Cc1ccccc1)C[C@@H](O)[C@H](Cc1ccccc1)NC(=O)OC(C)(C)C)C(=O)N[C@@H]1C(=O)N(C)c2ccccc2-c2ccccc21` as the molecule, how does the EC50 (Plasmodium yoelii) read?
A: 7.8 nM

Q: What about the EC50 (Plasmodium falciparum [26]) of the same molecule?
A: 17 nM
